Paper PMC6651555, “Cathepsin L Inhibitors with Activity against the Liver Fluke Identified From a Focus Library of Quinoxaline 1,4-di-N-Oxide Derivatives” (Molecules, 2019)
Entries after “also recorded” stand apart in the source; their conditions may differ.

Tests used:
FhCL1 = target: T1, FhCL1 (Fasciola hepatica, UniProt Q7JNQ9); experiment: FhCL1 inhibition screening, IC50 and slow-binding (fluorogenic substrate Z-VLK-AMC); format: biochemical; settings: read-out: %Inh FhCL1, 10 µM compound, 20 min preincubation, relative to enzyme alone; SD less than 10%
T1 construct: made in house; host or cells: Hansenula polymorpha (yeast)
Experimental: (§1) Each compound was completely dissolved in dimethylsulfoxide (DMSO) to a concentration of 10 mM to prepare the stock solutions. To evaluate the inhibition of FhCL1 and FhCL3 by quinoxaline 1,4-di-N-oxide derivatives, nanomolar concentrations of each enzyme was incubated with compounds at 10 μM. Briefly, each enzyme and compound were preincubated 20 min in a 96-well plate in 0.1 M sodium phosphate buffer pH 6, 1 mM DTT, and 1 mM EDTA at room temperature. The reaction was initiated by adding 20 μM of substrate and enzyme activity was measured by the increase in aminomethyl coumarin (AMC) fluorescence as peptide substrates were hydrolyzed (Z-VLK-AMC for FhCL1 and Tos-GPR-AMC for FhCL3), at an excitation wavelength of 340 nm and emission wavelength of 440 nm using a spectrofluorometer (Varioskan Thermo, Waltham, MA, USA). Enzyme activity was expressed as RFU/s (relative fluorescence units of AMC released per second). Each compound was tested in triplicate. A control reaction without enzymes was performed to check for the occurrence of non-catalyzed reactions between substrates and inhibitors and a spectrum from 300 to 450 nm wavelength was done for each quinoxaline 1,4-di-N-oxide derivative to verify that none of them had optical activity in the measurement range. The percentage of enzyme inhibition was calculated as 100 − (vi/vo) × 100, where vi and vo correspond to the initial rate of AMC fluorescence increase (RFU/s) with and without inhibitor, respectively.
(§2) To calculate the IC50 values, compounds were incubated with each enzyme at seven different concentrations; 0.625, 1.25, 2.5, 5, 10, 20, and 40 μM. Then, the enzyme activity was measured in a 96-well plate as described before. We plotted initial rates (RFU/s) versus log10 of inhibitor concentrations and obtained the IC50 values by fitting the data to a sigmoid curve. We also carried out slow-binding assays to evaluate the time-dependence of the inhibition. Each compound was incubated at 10 μM with the enzyme for increasing lengths of time; 3 to 120 min and the percentage of inhibition at each time point was determined as described before. We calculated the inhibition percentage of the leader compounds at 10 μM for HsCL1. The enzyme was preincubated for 20 min with the compounds and the activity was measured in a 96-well plate in 400 mM sodium acetate, pH 5.5, with 4 mM EDTA, 8 mM DTT, and 20 μM of substrate Z-VLK-AMC. The percentage of enzyme inhibition was calculated as described for FhCL1 and FhCL3. We determined the IC50 value for C17 against HsCL by incubating the enzyme with four different concentrations of the compound 0, 10, 25, and 50 μM and measuring the activity as described before. We plotted initial rates (RFU/s) versus log10 of inhibitor concentration and obtained the IC50 value by fitting the data to a sigmoid curve.

FhCL3 = FhCL3 inhibition screening, IC50 and slow-binding (fluorogenic substrate Tos-GPR-AMC); format: biochemical, Fasciola hepatica; settings: 10 µM compound, 20 min preincubation, relative to enzyme alone; SD less than 10%
Experimental: as §1, §2

F. hepatica NEJ = experiment: In vitro culture of NEJ and treatment with inhibitors (motility score); format: cell-based, Fasciola hepatica; settings: 50 μM compound, over 96 h
Experimental: F. hepatica metacercariae were acquired from Instituto Miguel C. Rubino (DILAVE, MGAP, Uruguay). NEJ were obtained by in vitro excystement as previously described with minor modifications. Briefly, metacercariae were incubated with 1% sodium hypochlorite for 5 min at room temperature to remove the outer cyst wall and then washed several times with PBS. Metacercariae activation was carried out in a medium prepared by mixing equal volumes of solution A (0.4% sodium taurocholate, 120 mM NaHCO3, 140 mM NaCl, pH 8.0) and solution B (50 mM HCl and 33 mM L-cysteine), and incubating at 39 °C until the NEJ begin to emerge (around 3–4 h). A 100 μm filter was used to retain the cyst wall. Collected NEJ were washed three times with RPMI-1640 supplemented with 200 U/mL Penicillin G sulfate, […] streptomycin sulfate, 500 ng/mL amphotericin B, 10 mM HEPES, counted and divided into groups of around 20 parasites that were transferred to 96 wells in tissue culture plates. Parasites were maintained at 37 °C, 5% CO2 in modified Basch’s medium. At day 1, each tested compound was added at a concentration of 50 μM in 0.5% DMSO. Also, 0.5% of DMSO was added to the control groups. Each condition was tested in duplicate. NEJ behavior was monitored under a light microscope (Olympus BX41, Hamburg, Germany), every day each well was recorded for a minute in order to assess parasite motility and registered using the following score: 3—normally active; 2—reduced activity (sporadic movement); 1—immotile (dead, adapted from). Control parasites were maintained in culture for seven days.

HepG2 cell line = experiment: Cytotoxicity on the HepG2 cell line (Sulforhodamin B); format: cell-based; settings: Homo sapiens, 24 h incubation with compound
Experimental: (§3) Cytotoxicity studies on the HepG2 cell line. Cells: 1.5 × 10^4 cells per 96-well plate were cultured in 225 µL of DMEM medium, supplemented with L-glutamine (1%), penicillin/streptomycin (1%), and 10% (v/v) fetal bovine serum (FBS). The cultures were maintained at 37 °C and 5% CO2 for 48 h. Treatment: Compound solutions were prepared just before dosing. Stock solutions, […], were prepared in 100% DMSO (Aldrich, Saint Louis, MO, USA) and 25 µL of adequate dilution was added to each well 24 h after plating the cells. For each compound, a dose-response curve was done with five different compound concentrations: 6.25, 12.5, 25, 50, and 100 µM (treated cells, T). No effect on cell growth was observed by the presence of 0.5% DMSO in the culture media (control cells, C). Cells were incubated with the compounds for 24 h at 37 °C in 5% CO2 atmosphere, then the medium was discarded and the cells were washed with PBS. The cells were then fixed with 50 µL of TCA (50%) and 200 µL of culture medium (without FBS) for 1 h at 4 °C. Then the cells were washed with purified water and treated with Sulforhodamin B (0.4% wt/vol in 1% acetic acid) for 10 min at room temperature. The plates were then washed with 1% acetic acid and dried overnight. Finally, 100 µL of Tris buffer (pH = 10.0) was added and absorbance read at 540 nm. Data calculations: The assays were done in four replicates. At the end of the experiment, the cell survival percentage (SP) was calculated for each compound as (T/C) × 100. To determine the IC50, the SP of cells at each compound concentration was plotted and the data were fitted to a sigmoid curve. The standard error was not greater than 10% for any condition. For the cytotoxicity assay with bovine spermatozoa, semen samples were obtained from a healthy fertile Hereford bull and kept frozen in 0.5 mL straws (extended in Andromed, Minitube, Tiefenbach, Germany) under liquid nitrogen until use. The semen used belonged to a single freezing batch that was obtained during a regular collection schedule with an artificial vagina. Samples from three straws were thawed and a sperm pool was prepared in PBS at a concentration of 80 million spermatozoa per ml. Then, 50 μL of this pool was carefully mixed with 50 μL of each compound to be tested at a concentration of 50 µM or 1% DMSO in control experiments. Each compound was assayed in triplicate in 96-well plates and controls were assayed in triplicate. Plates were incubated at 37 °C for 1 h with moderate shaking. The motility analysis was carried out using a CASA (Computer Assisted Semen Analyzer) system Androvision (Minitube, Tiefenbach, Germany) with an Olympus BX 41 microscope (Olympus, Japan) equipped with a warm-stage at 37 °C. Each sample (10 μL) was placed onto a Makler Counting Chamber (depth 10 μm, Sefi-Medical Instruments, Haifa, Israel) and the following parameters were evaluated: percentage of total motile spermatozoa (motility >5 μm/s) and velocity curved line (VCL > 24 μm/s). At least 400 spermatozoa were analyzed from each sample from at least four microscope fields.

bovine spermatozoa = experiment: Cytotoxicity assay with bovine spermatozoa (CASA motility); format: cell-based; settings: 50 µM, 1 h at 37 °C, relative to control sperm incubated with vehicle
Experimental: as §3

T1 sequence (Q7JNQ9 entry or part of it): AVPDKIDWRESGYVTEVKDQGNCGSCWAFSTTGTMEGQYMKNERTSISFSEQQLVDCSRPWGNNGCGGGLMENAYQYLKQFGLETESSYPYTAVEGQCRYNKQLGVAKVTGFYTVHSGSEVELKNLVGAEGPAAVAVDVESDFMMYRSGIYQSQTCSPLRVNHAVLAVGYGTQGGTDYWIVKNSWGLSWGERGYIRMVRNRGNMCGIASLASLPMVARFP

SMILES | inhibition at 10 µM (FhCL1) | %Inh FhCL3 (FhCL3) | Effect on NEJ motility / fasciolicide activity in vitro (F. hepatica NEJ) | IC50 (HepG2 cell line) | Sperm Motility RTC (relative to control) (bovine spermatozoa)
Cc1c[n+]([O-])c2ccccc2[n+]1[O-] [Compound C1] | 1% | 8% |  |  | 
O=Cc1c[n+]([O-])c2ccccc2[n+]1[O-] [Compound C2] | 21% | 0% |  |  | 
N#Cc1c(N)[n+]([O-])c2ccccc2[n+]1[O-] [Compound C3] | 30% | 0% |  |  | 
COC(=O)N/N=C/c1ccc2c(c1)[n+]([O-])c(C#N)c(N)[n+]2[O-] [Compound C4] | 0% | 27% |  |  | 
C=CCNC(=S)N/N=C/c1ccc2c(c1)[n+]([O-])c(C#N)c(N)[n+]2[O-] [Compound C5] | 20% | 39% |  |  | 
CCCCNC(=O)N/N=C/c1ccc2c(c1)[n+]([O-])c(C#N)c(N)[n+]2[O-] [Compound C6] | 59% | 27% | did not have activity against the parasites |  | 
CCN(C/C=C/c1ccccc1)c1ccc2c(c1)[n+]([O-])c(C#N)c(N)[n+]2[O-] [Compound C8] | 24% | 45% |  |  | 
N#Cc1c(N)[n+]([O-])c2cc(Cl)c(Cl)cc2[n+]1[O-] [Compound C9] | 15% | 0% |  |  | 
COC(=O)N/N=C/c1ccc2c(c1)[n+]([O-])c(C)c(C)[n+]2[O-] [Compound C10] | 13% | 3% |  |  | 
Cc1c(C)[n+]([O-])c2cc(/C=N/NC(=O)NCCc3ccccc3)ccc2[n+]1[O-] [Compound C11] | 56% | 32% | did not have activity against the parasites |  | 
C=CCN1C(=O)CS/C1=N/N=C/c1ccc2c(c1)[n+]([O-])c(C)c(C)[n+]2[O-] [Compound C12] | 0% | 22% |  |  | 
C=CCn1c(-c2ccc(Cl)cc2)csc1=NN=Cc1ccc2c(c1)[n+]([O-])c(C)c(C)[n+]2[O-] [Compound C13] | 34% | 2% |  |  | 
CCOC(=O)c1c(C)[n+]([O-])c2ccccc2[n+]1[O-] [Compound C14] | 28% | 5% |  |  | 
C=CCNC(=S)N/N=C/c1ccc2c(c1)[n+]([O-])c(C(=O)OCC)c(C)[n+]2[O-] [Compound C15] | 38% | 58% | did not have activity against the parasites |  | 
Cc1c(Sc2ccccc2)[n+]([O-])c2cc(Cl)c(Cl)cc2[n+]1[O-] [Compound C16] | 35% | 22% |  |  | 
CCOC(=O)c1c(-c2ccccc2)[n+]([O-])c2cc(Cl)c(Cl)cc2[n+]1[O-] [Compound C19] | 54% | 35% | progressive decrease of parasite motility starting between 24 and 96 h of culture; also recorded: strong fasciolicide activity in vitro |  | 
C=CCNC(=S)N/N=C/c1ccc2c(c1)[n+]([O-])c(C(=O)Nc1ccccc1)c(C)[n+]2[O-] [Compound C20] | 72% | 0% |  |  | 
CCN(C/C=C/c1ccccc1)c1ccc2c(c1)[n+]([O-])c(C(=O)Nc1ccccc1)c(C)[n+]2[O-] [Compound C21] | 47% | 54% | progressive decrease of parasite motility starting between 24 and 96 h of culture |  | 
Cc1c(C(=O)Nc2ccccc2)[n+]([O-])c2cc(CN3CCN(C/C=C/c4ccccc4)CC3)ccc2[n+]1[O-] [Compound C22] | 23% | 49% |  |  | 
C=CCN1C(=O)CS/C1=N/N=C/c1ccc2c(c1)[n+]([O-])c(-c1ccccc1)c(C(=O)Nc1ccccc1)[n+]2[O-] [Compound C24] | ≥ 80% |  | progressive decrease of parasite motility starting between 24 and 96 h of culture; also recorded: strong fasciolicide activity in vitro | 16 ± 0.1 µM | 82 ± 1
Cc1c(C(=O)NCc2ccccc2)[n+]([O-])c2ccccc2[n+]1[O-] [Compound C25] | 47% | 40% |  |  | 
Cc1c(C(=O)c2ccccc2)[n+]([O-])c2cc(F)c(F)cc2[n+]1[O-] [Compound C26] | 41% | 17% |  |  | 
O=C(c1ccccc1)c1c(C(F)(F)F)[n+]([O-])c2ccccc2[n+]1[O-] [Compound C27] | 38% | 22% |  |  | 
O=C(c1ccccc1)c1c(C(F)(F)F)[n+]([O-])c2cc(F)c(F)cc2[n+]1[O-] [Compound C28] | 0% | 38% |  |  | 
CSc1nc2cc(Cl)c(Oc3cccc(Cl)c3Cl)cc2[nH]1 [TCBZ, triclabendazole, reference compound] |  |  |  | 32 ± 0.2 µM | 88 ± 1
